Results reported in patent US20240027453A1, “METHOD FOR DETECTION AND QUANTITATIVE MONITORING OF INFECTIONS WITH HERPESVIRUSES” (The Trustees of Princeton University, priority 2020, published 2024).
Like-named read-outs stand apart in the source and are kept apart here.

System: HCMV
Format: cell-based
Protocol: In example herpesvirus PRM assay methods shown herein, cell pellets were lysed in 2% SDS, 100 mM NaCl, 0.5 mM EDTA, 50 mM Tris, pH 8.2, and 50 μg of protein was reduced and alkylated with 25 mM TCEP and 50 mM CAM respectively for 20 min at 70° C. Proteins were then precipitated via methanol chloroform precipitation (Wessel & Flugg, Anal Biochem. 138(1):141-143, 1984), resuspended in 50 mM HEPES, pH 8.2 and digested overnight with trypsin (50:1 protein:enzyme w/w ratio). Digested peptides were desalted by SDB-RPS StageTip as previously described (Lum et al., Cell Syst., 7(6):[…], 2018; Greco et al., Methods Mol Biol 1410:39-63, 2016; Federspiel & Cristea, Methods Mol Biol., 1977:115-143, 2019).
Peptides (1.0 μg on column) were analyzed by LC-MS/MS using a Dionex Ultimate 3000 UHPLC coupled online to an EASYSpray ion source and a Q Exactive HF. Peptides were separated on an EASYSpray C18 column (75 μm×25 cm) heated to 50° C. using a linear gradient of 5% B to 32% B over 60 min at a flow rate of 250 nL/min and were ionized at 1.7 kv. Mobile phase A consisted of 0.1% FA in H2O and mobile phase B consisted of 0.1% FA, 2.9% H2O in ACN.
The PRM method was controlled by a peptide inclusion list with retention time windows of 6 min for selected precursor ions.
The PRM assay was developed and analyzed using the open-source software Skyline (Maclean et al., Bioinformatics 26(7):966-968, 2010). Summed area under the curve of 3-4 transitions per peptide was used for quantitation. Targeted peptides were normalized to host protein loading control peptides. Peptide values for each sample were scaled to the average of each peptide across all runs. The average of multiple peptides was used as the inferred value for the protein measurement when more than one peptide was quantified (Federspiel et al., PLoS Biol. 17(9):e3000437. Doi: 10.1371/journal.pbio.3000437). PRM quantitation data were graphed using the Python Seaborn and Matplotlib libraries.
MRC5 primary human fibroblasts (HFs) (ATCC CCL-171) were used as the model system for HSV-1 and HCMV infections and were cultured in complete growth medium (DMEM supplemented with 10% fetal bovine serum and 1% penicillin-streptomycin antibiotics) at 37° C. and 5% CO2. iSLK.219 cells harboring latent KSHV (a gift from Dr. Britt Glaunsinger, University of California, Berkeley) were grown in complete growth medium supplemented with 500 μg/ml hygromycin (ThermoFisher Scientific, 10687010) at 37° C. and 5% CO2. All cells were used for experiments within a maximum of 10 passages.
Wild type HSV-1 strain 17+ (a gift from Beate Sodeik, Hannover Medical School, Hannover, Germany) was propagated as previously described (Diner et al., 2015). Briefly, PO stocks were generated by electroporating pBAC-HSV-1 into U-2 OS cells. […] In a similar manner, wild type HCMV strain AD169 was produced from BAC electroporation into HFs and working stocks were propagated by infecting HFs at a low level. In both cases, cell-associated virus was released by sonication, combined with supernatant virus, then concentrated by ultracentrifugation (20,000 rpm, 2 hours, 4° C. with SW28 swinging bucket rotor [Beckman Coulter]) over a 10% ficoll (HSV-1) or 20% sorbitol (HCMV) cushion. Virus stock titers were determined by plaque assay for HSV-1 or tissue culture infectious dose (TCID50) for HCMV and infections were performed at a multiplicity of infection (MOI) of 3.
12 hours prior to virus infection or reactivation, cells were treated with either the small molecule drug or DMSO/PBS control at an equivalent volume. […] For infection cycles lasting longer than 24 hours, small molecule drugs were re-added to the cell culture medium every 24 hours. Upon collection, cells were rinsed with PBS, scraped into a microcentrifuge tube, pelleted by centrifugation, and rinsed again with PBS.

Compound: Nc1c(S(=O)(=O)c2ccccc2)c2nc3ccccc3nc2n1-c1ccc(F)cc1 [CAY10602]
- HCMV UL122 (IE2) and UL123 (IE1) levels: decreases
- levels of HCMV viral immediate early proteins: reduced
- HCMV UL123 levels (24 HPI, […] CAY10602, 50 μM trans-Resveratrol): unchanged
- HCMV UL26 levels (48 HPI, […] CAY10602, 50 μM trans-Resveratrol): decreased
- HCMV viral protein production (by 48 HPI): global reduction
- HCMV UL99 levels (by 72 HPI, […] CAY10602, 50 μM trans-Resveratrol): robustly decreased
- global decrease in HCMV viral protein levels (by 120 HPI, […] CAY10602, 50 μM trans-Resveratrol): ~70%
- CVC2 (P16726) protein level (timepoint 24, DE): 0.01787
- DBP (P17147) protein level (timepoint 24, DE): 0.1756
- HELI (P16736) protein level (timepoint 24, DE): 0.3389
- IR01 (P09710) protein level (timepoint 24, DE): 0.274
- NEC2 (P16791) protein level (timepoint 24, DE): 0.03969
- RIR1 (P16782) protein level (timepoint 24, DE): 0.09397
- TRM1 (P16724) protein level (timepoint 24, DE): 0.04087
- UL4 (P17146) protein level (timepoint 24, DE): 0.03736
- UL26 (P16762) protein level (timepoint 24, DE): 0.07273
- UL32 (P08318) protein level (timepoint 24, DE): 0.01952
- UL34 (P16812) protein level (timepoint 24, DE): 0.1137
- UL38 (P16779) protein level (timepoint 24, DE): 0.9755
- UL44 (P16790) protein level (timepoint 24, DE): 0.06474
- UL48 (P16785) protein level (timepoint 24, DE): 0.01175
- UL54 (P08546) protein level (timepoint 24, DE): 0.6089
- UL71 (P16823) protein level (timepoint 24, DE): 0.439
- UL78 (P16751) protein level (timepoint 24, DE): 0.9755
- UL84 (P16727) protein level (timepoint 24, DE): 0.1012
- UL95 (P16801) protein level (timepoint 24, DE): 0.07625
- UL96 (P16787) protein level (timepoint 24, DE): 0.387
- UL97 (P16788) protein level (timepoint 24, DE): 0.2812
- UL98 (P16789) protein level (timepoint 24, DE): 0.3005
- UL102 (P16827) protein level (timepoint 24, DE): 0.5343
- UL104 (P16735) protein level (timepoint 24, DE): 0.03903
- UL112/UL113 (P17151) protein level (timepoint 24, DE): 0.5236
- UL114 (P16769) protein level (timepoint 24, DE): 0.6704
- UL119/UL118 (P16739) protein level (timepoint 24, DE): 0.2198
- UL128 (P16837) protein level (timepoint 24, DE): 0.1113
- US8 (P09730) protein level (timepoint 24, DE): 1.057
- US9 (P09729) protein level (timepoint 24, DE): 0.627
- US12 (P09721) protein level (timepoint 24, DE): 1.672
- US13 (P09720) protein level (timepoint 24, DE): 0.6838
- US14 (P09719) protein level (timepoint 24, DE): 0.3957
- US18 (P69334) protein level (timepoint 24, DE): 0.5335
- US22 (P09722) protein level (timepoint 24, DE): 0.3966
- US23 (P09701) protein level (timepoint 24, DE): 0.6776
- US24 (P09700) protein level (timepoint 24, DE): 0.62
- US34 (P09709) protein level (timepoint 24, DE): 0.7981
- gB (P06473) protein level (timepoint 24, DE): 0.1137
- IRS1 (P09715) protein level (timepoint 24, IE): 0.3939
- TRS1 (P09695) protein level (timepoint 24, IE): 0.2642
- UL13 (P16755) protein level (timepoint 24, IE): 2.055
- UL36 (P16767) protein level (timepoint 24, IE): 1.41
- UL37 (P16778) protein level (timepoint 24, IE): 1.032
- UL122 (P19893) protein level (timepoint 24, IE): 0.05997
- UL123 (P13202) protein level (timepoint 24, IE): 0.9831
- CVC1 (P16799) protein level (timepoint 24, L): 0.06119
- IR11 (P16809) protein level (timepoint 24, L): 0.1044
- MCP (P16729) protein level (timepoint 24, L): 0.004968
- SCP (Q7M6N6) protein level (timepoint 24, L): 0.004248
- TRM2 (P16792) protein level (timepoint 24, L): 0.01981
- UL22A (P16845) protein level (timepoint 24, L): 0.04382
- UL25 (P16761) protein level (timepoint 24, L): 0.03889
- UL29 (P16764) protein level (timepoint 24, L): 0.8336
- UL31 (P16848) protein level (timepoint 24, L): 0.3279
- UL43 (P16781) protein level (timepoint 24, L): 0.06088
- UL52 (P16793) protein level (timepoint 24, L): 0.01567
- UL80 (P16753) protein level (timepoint 24, L): 0.0363
- UL82 (P06726) protein level (timepoint 24, L): 0.1843
- UL88 (P16731) protein level (timepoint 24, L): 0.03831
- UL94 (P16800) protein level (timepoint 24, L): 0.08626
- UL99 (P13200) protein level (timepoint 24, L): 0.0296
- UL103 (P16734) protein level (timepoint 24, L): 0.3578
- UL117 (P16770) protein level (timepoint 24, L): 0.4362
- gH (P12824) protein level (timepoint 24, L): 0.04925
- gL (P16832) protein level (timepoint 24, L): 0.03727
- gM (P16733) protein level (timepoint 24, L): 0.03485
- gN (P16795) protein level (timepoint 24, L): 0.1564
- IR12 (P16810) protein level (timepoint 24, LL): 0.06811
- TRX1 (P16783) protein level (timepoint 24, LL): 0.0077
- TRX2 (P16728) protein level (timepoint 24, LL): 0.005245
- UL24 (P16760) protein level (timepoint 24, LL): 0.1137
- UL40 (P16780) protein level (timepoint 24, LL): 0.6403
- UL47 (P16784) protein level (timepoint 24, LL): 0.008892
- UL69 (P16749) protein level (timepoint 24, LL): 0.2203
- UL70 (P17149) protein level (timepoint 24, LL): 0.1882
- UL83 (P06725) protein level (timepoint 24, LL): 0.04505
- UL132 (P69338) protein level (timepoint 24, LL): 0.1044
- US15 (P09718) protein level (timepoint 24, LL): 1.318
- CVC2 (P16726) protein level (timepoint 48, DE): 0.02711
- DBP (P17147) protein level (timepoint 48, DE): 0.3215
- HELI (P16736) protein level (timepoint 48, DE): 0.633
- IR01 (P09710) protein level (timepoint 48, DE): 0.3157
- NEC2 (P16791) protein level (timepoint 48, DE): 0.07071
- RIR1 (P16782) protein level (timepoint 48, DE): 0.1157
- TRM1 (P16724) protein level (timepoint 48, DE): 0.1031
- UL4 (P17146) protein level (timepoint 48, DE): 0.07128
- UL26 (P16762) protein level (timepoint 48, DE): 0.08021
- UL32 (P08318) protein level (timepoint 48, DE): 0.02022
- UL34 (P16812) protein level (timepoint 48, DE): 0.07906
- UL35 (P16766) protein level (timepoint 48, DE): 0.007792
- UL38 (P16779) protein level (timepoint 48, DE): 0.8139
- UL44 (P16790) protein level (timepoint 48, DE): 0.08914
- UL48 (P16785) protein level (timepoint 48, DE): 0.03443
- UL54 (P08546) protein level (timepoint 48, DE): 0.7178
- UL71 (P16823) protein level (timepoint 48, DE): 0.3459
- UL78 (P16751) protein level (timepoint 48, DE): 0.7134
- UL84 (P16727) protein level (timepoint 48, DE): 0.07575
- UL95 (P16801) protein level (timepoint 48, DE): 0.1437
- UL96 (P16787) protein level (timepoint 48, DE): 0.2583
- UL97 (P16788) protein level (timepoint 48, DE): 0.1726
- UL98 (P16789) protein level (timepoint 48, DE): 0.3796
